The supplement of paper PMC10307832

Columns and labels:
Assay in all cases: relative viability (nuclei count vs DMSO), 5 days (fraction); higher = more cells survive
[1] = compound: O=C(Nc1cc(C(F)(F)F)cc(C(F)(F)F)c1)c1cc(Cl)ccc1O [IMD-0354] + COc1cccc2cc(-c3nc([C@H]4CC[C@H](C(=O)O)CC4)n4ncnc(N)c34)[nH]c12 [OSI-027] (partner 0.5 µM)
Method in brief: (§1)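 Relative viability was taken as the ratio of nuclei in treated wells to nuclei in vehicle wells. Lung cancer cell lines in 1536-well plates received compounds by pin tool one day after seeding, either one drug alone or a fixed anchor-drug dose plus five library-drug doses (not always all listed) in √10 steps. Nuclei were counted on 4× images after 5 days of treatment, and values are medians of duplicate plates.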

[2] = compound: O=C(Nc1cc(C(F)(F)F)cc(C(F)(F)F)c1)c1cc(Cl)ccc1O [IMD-0354] + C[C@]1(O)C[C@@H](c2nc(-c3ccc4ccc(-c5ccccc5)nc4c3)c3c(N)nccn32)C1 [Linsitinib] (partner 1 µM)
Method in brief: as §1

[3] = compound: O=C(Nc1cc(C(F)(F)F)cc(C(F)(F)F)c1)c1cc(Cl)ccc1O [IMD-0354] + O=C(CCCCCCC(=O)Nc1ccccc1)NO [Vorinostat] (partner 1 µM)
Method in brief: as §1

[4] = compound: O=C(Nc1cc(C(F)(F)F)cc(C(F)(F)F)c1)c1cc(Cl)ccc1O [IMD-0354] + Cc1nc(NC(=O)N2CCC[C@H]2C(N)=O)sc1-c1ccnc(C(C)(C)C(F)(F)F)c1 [Alpelisib] (partner 2 µM)
Method in brief: as §1

Row | Cell Line | relative viability ([1]; first compound 0.04 µM) | relative viability ([1]; first compound 0.1265 µM) | relative viability ([1]; first compound 0.4 µM) | relative viability ([1]; first compound 1.265 µM) | relative viability ([1]; first compound 4 µM) | relative viability ([2]; first compound 0.04 µM) | relative viability ([2]; first compound 0.1265 µM) | relative viability ([2]; first compound 0.4 µM) | relative viability ([2]; first compound 1.265 µM) | relative viability ([2]; first compound 4 µM) | relative viability ([3]; first compound 0.04 µM) | relative viability ([3]; first compound 0.1265 µM) | relative viability ([3]; first compound 0.4 µM) | relative viability ([3]; first compound 1.265 µM) | relative viability ([3]; first compound 4 µM) | relative viability ([4]; first compound 0.04 µM) | relative viability ([4]; first compound 0.1265 µM) | relative viability ([4]; first compound 0.4 µM) | relative viability ([4]; first compound 1.265 µM) | relative viability ([4]; first compound 4 µM)
1 | HCC-78 | 0.321 | 0.363 | 0.314 | 0.296 | 0.283 | 0.471 | 0.495 | 0.421 | 0.486 | 0.276 | 0.406 | 0.378 | 0.405 | 0.407 | 0.31 | 0.366 | 0.345 | 0.121 | 0.231 | 0.192
2 | LOU-NH91 | 0.77 | 0.692 | 0.335 | 0.27 | 0.198 | 0.945 | 0.989 | 0.652 | 0.317 | 0.251 | 1.03 | 0.709 | 0.164 | 0.173 | 0.201 | 0.755 | 0.729 | 0.541 | 0.244 | 0.231
3 | NCI-H3122 | 1.08 | 0.851 | 0.505 | 0.223 | 0.114 | 1.06 | 1.12 | 0.742 | 0.573 | 0.15 | 1.04 | 0.936 | 0.622 | 0.3 | 0.132 | 0.845 | 0.917 | 0.365 | 0.271 | 0.163
4 | HCC-827 | 0.67 | 0.693 | 0.621 | 0.225 | 0.196 | 0.898 | 0.947 | 0.82 | 0.606 | 0.282 | 0.86 | 0.841 | 0.706 | 0.264 | 0.29 | 0.888 | 0.978 | 0.752 | 0.574 | 0.216
5 | SW 1573 | 0.849 | 0.566 | 0.349 | 0.124 | 0.0864 | 0.764 | 0.697 | 0.589 | 0.493 | 0.102 | 1.08 | 0.676 | 0.429 | 0.158 | 0.0883 | 0.768 | 0.788 | 0.328 | 0.202 | 0.15
6 | NCI-H1975 | 0.917 | 0.6 | 0.402 | 0.205 | 0.155 | 1.15 | 0.938 | 0.517 | 0.178 | 0.207 | 0.723 | 0.685 | 0.493 | 0.209 | 0.248 | 0.799 | 0.679 | 0.36 | 0.167 | 0.204
7 | NCI-H1651 | 0.667 | 0.667 | 0.495 | 0.199 | 0.0772 | 1.03 | 0.901 | 0.429 | 0.0622 | 0.0566 | 0.583 | 0.602 | 0.504 | 0.299 | 0.168 | 1.17 | 0.987 | 0.584 | 0.266 | 0.0691
8 | NCI-H441 | 0.593 | 0.604 | 0.329 | 0.169 | 0.231 | 0.485 | 0.659 | 0.31 | 0.234 | 0.22 | 0.971 | 0.82 | 0.416 | 0.246 | 0.236 | – | 0.78 | 0.398 | 0.285 | 0.217
9 | LCLC-103H | 0.592 | 0.471 | 0.375 | 0.295 | 0.196 | 1.11 | 1.07 | 0.844 | 0.821 | 0.425 | 0.79 | 0.706 | 0.539 | 0.364 | 0.287 | 0.952 | 0.998 | 0.839 | 0.815 | 0.397
10 | LCLC-97TM1 | 0.519 | 0.489 | 0.265 | 0.186 | 0.148 | – | 0.153 | 0.179 | 0.177 | 0.132 | 0.879 | 0.782 | 0.273 | 0.0926 | 0.123 | – | 0.272 | 0.245 | 0.207 | 0.113
11 | NCI-H727 | 0.93 | 0.585 | 0.415 | 0.395 | 0.312 | 0.161 | 0.257 | 0.281 | 0.206 | 0.233 | 1.04 | 1.19 | 0.856 | 0.808 | 0.787 | 0.606 | 0.641 | 0.497 | 0.396 | 0.352
12 | NCI-H1355 | 0.382 | 0.45 | 0.372 | 0.258 | 0.234 | 1.04 | 0.708 | 0.757 | 0.795 | 0.203 | 0.75 | 0.651 | 0.45 | 0.433 | 0.231 | 1.07 | 0.692 | 0.736 | 0.561 | 0.222
13 | HOP-62 | 0.954 | 0.782 | 0.516 | 0.295 | 0.204 | 1.02 | 0.898 | 0.48 | 0.93 | 0.206 | 0.573 | 0.577 | 0.417 | 0.193 | 0.109 | 0.839 | 1.2 | 0.896 | 0.837 | 0.178
14 | NCI-H2085 | 0.773 | 0.78 | 0.522 | 0.362 | 0.212 | 0.786 | 0.976 | 0.687 | 0.497 | 0.278 | 0.825 | 0.902 | 0.617 | 0.376 | 0.362 | 0.899 | 0.888 | 0.764 | 0.492 | 0.269
